Experimental findings from US8080251B2, “Antigenic peptides” (Centre for DNA Fingerprinting and Diagnostics, priority 2004, dated 2011) are described below.

Assay [1] has as its system serum IgG antibodies (patient sera). Put plainly: ELISA of serum IgG antibody response of TB patients to rRv2608 protein / synthetic peptides. Conditions: for Reactivity with patient sera: TB patient sera, ELISA; for Mean (O.D. at 492 nm): humoral response, antigen 2 μg/ml. The format is binding, human. Background: ELISA stands for enzyme-linked immunosorbent assay.
In assay [2] the test system is peripheral blood mononuclear cells (PBMCs). Kind of assay: Lymphocyte (T cell) proliferation assay, MTT readout. The format is cell-based, human. Conditions: comparison between patient categories / between peptides.
Where [3] appears, read: Category I patients (TB diagnosed for the first time, n=22).
Where [4] appears, read: Category II patients (relapsed TB, n=21).
The mark [5] stands for this setting: Category III patients (extrapulmonary TB, n=8).

For “DNIGNANIGFGNK (listed as Mycobacterium tuberculosis) [Peptide P1a, 13-residue overlapping peptide, component of peptide 1]”, in assay [1], the “Reactivity with patient sera” value is reported as “react equally well with patient sera”. For the same molecule, the results for the “Mean (O.D. at 492 nm)” value in assay [1] (setting [3]), in assay [1] (setting [4]) and in assay [1] (setting [5]) were 0.426, 0.770 and 0.473, respectively.
As to “DNIGNANIGFGNRGDANIGIGNIGDRNLGIGNTGNWK (listed as Mycobacterium tuberculosis) [Peptide P1]”, in assay [1], the “Reactivity with patient sera” value is given as “strongly react with patient sera”. The “Mean (O.D. at 492 nm)” value is listed as 0.412 in assay [1] (setting [3]), 0.675 in assay [1] (setting [4]) and 0.483 in assay [1] (setting [5]).
The matching figures for “DRNLGIGNTGNWK (listed as Mycobacterium tuberculosis) [Peptide P1e, 13-residue overlapping peptide, component of peptide 1]”: “react equally well with patient sera”, 0.407, 0.711 and 0.405.
“GIGNIGDRNLGIK (listed as Mycobacterium tuberculosis) [Peptide P1d, 13-residue overlapping peptide, component of peptide 1]”: the “Reactivity with patient sera” value in assay [1] is “react equally well with patient sera”. In addition, the results for the “Mean (O.D. at 492 nm)” value in assay [1] (setting [3]), in assay [1] (setting [4]) and in assay [1] (setting [5]) were 0.482, 0.787 and 0.527, respectively.
“GNPNRPDGGILTK (listed as Mycobacterium tuberculosis) [Peptide P2c, 13-residue overlapping peptide, part of peptide 2]”: the “T cell proliferative response” value in assay [2] is listed as “comparatively higher T cell response”. In assay [1], the “Reactivity with patient sera” value is on record as “react equally well with patient sera”. For the same molecule, the “Mean (O.D. at 492 nm)” value in assay [1] (setting [3]) was 0.491; in assay [1] (setting [4]), 0.632; in assay [1] (setting [5]), 0.410.
Regarding “LSFTLTGNPNRPK (listed as Mycobacterium tuberculosis) [Peptide P2b, 13-residue overlapping peptide, part of peptide 2]”, the “Reactivity with patient sera” value in assay [1] is listed as “react equally well with patient sera”. The figures for the “Mean (O.D. at 492 nm)” value in assay [1] (setting [3]), in assay [1] (setting [4]) and in assay [1] (setting [5]) were 0.450, 0.498 and 0.422, respectively.
Consider “NIGFGNRGDANIK (listed as Mycobacterium tuberculosis) [Peptide P1b, 13-residue overlapping peptide, component of peptide 1]”, for which the “Reactivity with patient sera” value in assay [1] is reported as “react equally well with patient sera”. Also, the “Mean (O.D. at 492 nm)” value came to 0.469 in assay [1] (setting [3]), 0.775 in assay [1] (setting [4]) and 0.520 in assay [1] (setting [5]).
The like results for “RGDANIGIGNIGK (listed as Mycobacterium tuberculosis) [Peptide P1c, 13-residue overlapping peptide, component of peptide 1]” were, in that order, “react equally well with patient sera”, 0.416, 0.810 and 0.380.
In the case of “RPGLDELSFTLTGNPNRPDGGILTK (listed as Mycobacterium tuberculosis) [Peptide P2]”, the entries for the “T cell proliferative response” value in assay [2], in assay [2] (listed as Peptide 2) and in assay [2] (listed as peptide 2) were “comparatively higher T cell response”, “higher response in fresh infection cases” and “fresh infection cases>relapsed TB>extrapulmonary TB cases”, respectively. Moreover, the “Reactivity with patient sera” value in assay [1] is “strongly react with patient sera”. Further, the “Mean (O.D. at 492 nm)” value in assay [1] (setting [3]) was determined as 0.480; in assay [1] (setting [4]) it was 0.706; in assay [1] (setting [5]), 0.441.
As for “RPGLDELSFTLTK (listed as Mycobacterium tuberculosis) [Peptide P2a, 13-residue overlapping peptide, part of peptide 2]”, the “Reactivity with patient sera” value in assay [1] is “react equally well with patient sera”. The entries for the “Mean (O.D. at 492 nm)” value in assay [1] (setting [3]), in assay [1] (setting [4]) and in assay [1] (setting [5]) were 0.473, 0.689 and 0.392, respectively.

B1: rRv2608: 59.6 kDa recombinant M. tuberculosis PPE_MPTR protein Rv2608, expressed in E. coli BL21 as 6×His-tag fusion protein (protein)
chain: MNFAVLPPEVNSARIFAGAGLGPMLAAASAWDGLAEELHAAAGSFASVTTGLAGDAWHGPASLAMTRAASPYVGWLNTAAGQAAQAAGQARLAASAFEATLAATVSPAMVAANRTRLASLVAANLLGQNAPAIAAAEAEYEQIWAQDVAAMFGYHSAASAVATQLAPIQEGLQQQLQNVLAQLASGNLGSGNVGVGNIGNDNIGNANIGFGNRGDANIGIGNIGDRNLGIGNTGNWNIGIGITGNGQIGFGKPANPDVLVVGNGGPGVTALVMGGTDSLLPLPNIPLLEYAARFITPVHPGYTATFLETPSQFFPFTGLNSLTYDVSVAQGVTNLHTAIMAQLAAGNEVVVFGTSQSATIATFEMRYLQSLPAHLRPGLDELSFTLTGNPNRPDGGILTRFGFSIPQLGFTLSGATPADAYPTVDYAFQYDGVNDFPKYPLNVFATANAIAGILFLHSGLIALPPDLASGVVQPVSSPDVLTTYILLPSQDLPLLVPLRAIPLLGNPLADLIQPDLRVLVELGYDRTAHQDVPSPFGLFPDVDWAEVAADLQQGAVQGVNDALSGLGLPPPWQPALPRLF
modifications: left off: small tags and cut ends
For B1, in assay [1] (Category III compared to Category I or II), the “Serum reactivity of extrapulmonary TB patients” value is “less reactivity”. For the same molecule, the “Serum reactivity compared with Hsp10” value in assay [1] (all patient categories, p>0.05) is “equal to or higher than the response to Hsp10”. In addition, in assay [1] (healthy controls (n=10) vs patients, p=0.0002), the “Serum reactivity of healthy controls” value is on record as “significantly less when compared to that of patients”.
